This is an account of results in ChEMBL document CHEMBL4834482, “Concise solid-phase synthesis enables derivatisation of YEATS domain cyclopeptide inhibitors for improved cellular uptake” (Bioorg Med Chem, 2021).

In experiment [1] the target is T1, Protein AF-9 (Homo sapiens, UniProt P42568).
T1 sequence (P42568 whole entry): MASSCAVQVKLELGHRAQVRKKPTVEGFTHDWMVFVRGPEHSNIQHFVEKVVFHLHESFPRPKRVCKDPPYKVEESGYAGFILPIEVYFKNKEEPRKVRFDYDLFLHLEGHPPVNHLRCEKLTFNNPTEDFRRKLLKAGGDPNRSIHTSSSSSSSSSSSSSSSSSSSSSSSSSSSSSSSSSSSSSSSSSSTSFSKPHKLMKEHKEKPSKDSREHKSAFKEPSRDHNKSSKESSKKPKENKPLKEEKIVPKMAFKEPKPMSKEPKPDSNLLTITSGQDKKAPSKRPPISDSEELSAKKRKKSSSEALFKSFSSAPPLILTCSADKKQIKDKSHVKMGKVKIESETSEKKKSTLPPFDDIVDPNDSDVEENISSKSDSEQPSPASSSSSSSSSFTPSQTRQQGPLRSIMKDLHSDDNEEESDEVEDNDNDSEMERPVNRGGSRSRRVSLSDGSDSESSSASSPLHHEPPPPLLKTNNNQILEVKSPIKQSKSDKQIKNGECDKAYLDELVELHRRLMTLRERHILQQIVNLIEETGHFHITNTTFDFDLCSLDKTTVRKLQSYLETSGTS
The experiment is described as follows: Inhibition of AF9 YEATS domain (1 to 138 residues) (unknown origin) assessed as inhibition of probe-1 induced AF9 YEATS domain labelling incubated for 10 mins followed by UV-irradiation for 20 mins by Photo-cross linking based In-gel fluorescence scanning analysis.

In experiment [2] the target is T1, Protein AF-9. Nature of the experiment: Binding affinity to AF9 YEATS domain (1 to 138 residues) (unknown origin) by isothermal titration calorimetry. (In general: ITC needs no label: the signal is the heat of the interaction.)

Usually IC50 stands for the concentration that gives 50% inhibition. As a reminder, the Kd is the concentration at which binding is half-saturated. A high value points to lower affinity. For `CC(=O)N[C@@H](Cc1ccc(O)cc1)C(=O)NCC(=O)N[C@@H](CCCNC(=N)N)C(=O)N[C@@H](CCCCN)C(=O)N[C@@H](CCCCN)C(=O)N[C@@H](CCCNC(=N)N)C(=O)N[C@@H](CCCNC(=N)N)C(=O)N[C@@H](CCC(N)=O)C(=O)N[C@@H](CCCNC(=N)N)C(=O)N[C@@H](CCCNC(=N)N)C(=O)N[C@@H](CCCNC(=N)N)C(=O)NCCCC[C@@H]1NC(=O)[C@H]([C@@H](C)O)NC(=O)[C@@H](NC(=O)OCc2ccccc2)CCCCNC(=N)NCCC[C@@H](C(=O)N[C@@H](CCCCNC(=O)c2cnco2)C(N)=O)NC1=O`, the IC50 on Protein AF-9 [1] is 1740 nM. This molecule also came in with a Kd on Protein AF-9 [2] of 800 nM.

For `C[C@@H]1NC(=O)[C@H]([C@H](C)O)NC(=O)[C@@H](NC(=O)OCc2ccccc2)CCCCNC(=N)NCCC[C@H](C(=O)N[C@@H](CCCCNC(=O)c2cnco2)C(N)=O)NC1=O`, at Protein AF-9 [1], the IC50 amounted to 410 nM. This molecule also returned an equilibrium dissociation constant (Kd) on Protein AF-9 [2] of 370 nM.
